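The compound was tested at five concentrations on cells cultured in 96-well plates, with a 48-hour exposure period. GI50 = concentration required for 50% inhibition of growth.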 Activity calls are given as the source filed them. Rule as the data show it: active = GI50 up to about 1.1 µM and inactive = higher.
Tests used:
Test in all cases: DTP human tumour cell line panel, 48 h
A549 = test system: A549
CCRF-CEM = test system: CCRF-CEM
COLO 205 = test system: COLO 205
HCC 2998 = test system: HCC 2998
HOP-62 = test system: HOP-62
HOP-92 = test system: HOP-92
LOX IMVI = test system: LOX IMVI
NCI-H23 = test system: NCI-H23
OVCAR-8 = test system: OVCAR-8
RPMI-8226 = test system: RPMI-8226
SF-539 = test system: SF-539
SNB-19 = test system: SNB-19
UACC-257 = test system: UACC-257
UO-31 = test system: UO-31
CAKI-1 = test system: CAKI-1
HCT-15 = test system: HCT-15
SR = test system: SR

Structure (SMILES)	GI50 (A549)	GI50 (CCRF-CEM)	GI50 (COLO 205)	GI50 (HCC 2998)	GI50 (HOP-62)	GI50 (HOP-92)	GI50 (LOX IMVI)	GI50 (NCI-H23)	GI50 (OVCAR-8)	GI50 (RPMI-8226)	GI50 (SF-539)	GI50 (SNB-19)	GI50 (UACC-257)	GI50 (UO-31)	GI50 (CAKI-1)	GI50 (HCT-15)	GI50 (SR)
CC(c1cccc2ccccc12)/[N+]([O-])=C/c1ccccc1 (stereo unspecified)	> 100 µM (inactive)	> 100 µM (inactive)	> 100 µM (inactive)	> 100 µM (inactive)	> 100 µM (inactive)	29.5 µM (inactive)	> 100 µM (inactive)	> 100 µM (inactive)	> 100 µM (inactive)	58.3 µM (inactive)	> 100 µM (inactive)	> 100 µM (inactive)	> 100 µM (inactive)	39.6 µM (inactive)			
COC(=O)/C=C/C1C(C(=O)OC)C2(C(=O)OC)CCC1(C(=O)OC)N2 (stereo unspecified)	> 100 µM (inactive)	> 100 µM (inactive)	> 100 µM (inactive)	> 100 µM (inactive)	> 100 µM (inactive)	> 100 µM (inactive)	> 100 µM (inactive)	> 100 µM (inactive)	> 100 µM (inactive)	> 100 µM (inactive)	> 100 µM (inactive)	> 100 µM (inactive)	> 100 µM (inactive)	> 100 µM (inactive)	> 100 µM (inactive)	> 100 µM	> 100 µM (inactive)
O=c1[nH]c2c3ccccc3ccc2c2cc3c(cc12)OCO3	75.9 µM (inactive)	69.8 µM (inactive)	> 100 µM (inactive)	> 100 µM (inactive)	89.1 µM (inactive)		> 100 µM (inactive)	> 100 µM (inactive)	> 100 µM (inactive)	72.8 µM (inactive)	> 100 µM (inactive)	> 100 µM (inactive)	> 100 µM (inactive)	39.4 µM (inactive)	95.9 µM (inactive)	71.6 µM	
CCCCCCCCNC(=O)SCCCC	33.9 µM (inactive)	23.4 µM (inactive)	45.2 µM (inactive)			17.6 µM (inactive)	19.9 µM (inactive)	38.5 µM (inactive)	33.8 µM (inactive)	22.4 µM (inactive)	38.6 µM (inactive)	27.5 µM (inactive)		26.5 µM (inactive)	21.3 µM (inactive)	27.9 µM	
Nc1c([N+](=O)[O-])nc(Cl)c2nncn12	> 100 µM (inactive)	> 46 µM (inactive)	> 43 µM (inactive)	> 100 µM (inactive)	> 100 µM (inactive)	> 100 µM (inactive)	> 43.8 µM (inactive)	> 100 µM (inactive)	> 100 µM (inactive)	> 47.1 µM (inactive)	> 95.5 µM (inactive)	> 100 µM (inactive)	> 100 µM (inactive)	> 100 µM (inactive)	> 100 µM (inactive)	19.3 µM	19.9 µM (inactive)
COC(=O)[C@@H]1Cc2c([nH]c3ccccc23)[C@H](c2ccccc2)N1	38.6 µM (inactive)	37.3 µM (inactive)	20 µM (inactive)	31.2 µM (inactive)		44.9 µM (inactive)	38.9 µM (inactive)	54.1 µM (inactive)	41.3 µM (inactive)		26.4 µM (inactive)	37.6 µM (inactive)	41.8 µM (inactive)	29.6 µM (inactive)	60.5 µM (inactive)	19.4 µM	29.2 µM (inactive)
Clc1ccc(C2SCc3nc4ccccc4n32)cc1Cl (stereo unspecified)	13.4 µM (inactive)	23.7 µM (inactive)	20.3 µM (inactive)		14.5 µM (inactive)	11.2 µM (inactive)	13.1 µM (inactive)	12.6 µM (inactive)	13.7 µM (inactive)	11.4 µM (inactive)	17.1 µM (inactive)	10.6 µM (inactive)			14.1 µM (inactive)	13.3 µM	13.9 µM (inactive)
CN1COc2c(n(C)c(=O)[nH]c2=O)C1	> 100 µM (inactive)	> 61.7 µM (inactive)	59 µM (inactive)	> 100 µM (inactive)	> 100 µM (inactive)	> 100 µM (inactive)		> 100 µM (inactive)	> 95.7 µM (inactive)	26.1 µM (inactive)	> 100 µM (inactive)	> 100 µM (inactive)	> 100 µM (inactive)	> 100 µM (inactive)	> 47.8 µM (inactive)	98.2 µM	27.2 µM (inactive)
COc1ccc2nc(NC(=O)C(=O)C(C#N)c3ccc(Cl)c(Cl)c3)sc2c1 (stereo unspecified)	> 100 µM (inactive)	> 100 µM (inactive)	> 100 µM (inactive)		> 100 µM (inactive)	33.9 µM (inactive)	> 100 µM (inactive)	75.9 µM (inactive)	> 100 µM (inactive)	> 100 µM (inactive)	63.4 µM (inactive)	> 100 µM (inactive)	> 100 µM (inactive)	> 100 µM (inactive)	> 100 µM (inactive)	> 100 µM	

Source: ChEMBL document CHEMBL1201862, “PubChem BioAssay data set” (2004)
